Reference: paper PMC5642495, “Characterization of a novel androgen receptor (AR) coregulator RIPK1 and related chemicals that suppress AR-mediated prostate cancer growth via peptide and chemical screening” (Oncotarget, 2017)

Tests used:
[1] = target: T1, AR N-C interaction (Homo sapiens, UniProt P10275); assay: AR N-C interaction reporter assay in PC-3 cells; format: cell-based; details: 10 nM DHT, Figure 6A
T1 construct: pCDNA3-hAR-C (residues 556–919); expressed in transfected cells; host or cells: PC-3
T1 sequence (P10275 556-919): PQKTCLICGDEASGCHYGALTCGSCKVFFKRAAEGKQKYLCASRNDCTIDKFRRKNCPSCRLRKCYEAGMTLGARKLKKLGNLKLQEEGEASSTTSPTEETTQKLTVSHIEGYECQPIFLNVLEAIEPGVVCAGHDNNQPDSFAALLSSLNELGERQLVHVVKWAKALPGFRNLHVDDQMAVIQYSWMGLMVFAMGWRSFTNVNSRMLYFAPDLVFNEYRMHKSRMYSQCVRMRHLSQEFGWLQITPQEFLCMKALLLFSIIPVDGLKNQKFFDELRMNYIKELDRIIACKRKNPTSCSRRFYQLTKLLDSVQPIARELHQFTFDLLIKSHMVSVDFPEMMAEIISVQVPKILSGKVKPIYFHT
Description: (§1) Figure 6 Mechanism underlying suppression of AR-related functions by oxadiazole derivatives (A–C) Transcriptional activity in reporter assays. PC-3 cells in 24-well plates were transfected as indicated below. After incubation for 16 h, cells were treated with ethanol, 10 nM DHT, or 0.01–10 μM HWC-489 or LHJ-647 for an additional 16 h. Luciferase activity in cell lysates was determined and normalized to protein concentrations. Relative luciferase activity was calculated using the luciferase reporter assay system. (A) PC-3 cells were co-transfected with 350 ng pCDNA3-flag-hAR-N (residues 1–506), 350 ng pCDNA3-hAR-C (residues 556–919), and 300 ng MMTV-Luc plasmids. (B) PC-3 cells were co-transfected with 350 ng GAL4-DBD-3-18, 350 ng pCMX-VP16-AR, and 300 ng pG5-Luc plasmids. (C) PC-3 cells were transfected with 350 ng GAL4-DBD-ARA54C, 350 ng VP16-AR, and 300 ng pG5-Luc plasmids. (D) LHJ-647 promotes AR protein degradation.

[2] = target: T2, AR-cofactor interaction (Homo sapiens, UniProt P10275); assay: AR-cofactor interaction reporter assay (GAL4-DBD-ARA54C / VP16-AR) in PC-3 cells; format: cell-based; details: 10 nM DHT, Figure 6C
T2 construct: expressed in transfected cells; host or cells: PC-3
T2 sequence (P10275 1-920): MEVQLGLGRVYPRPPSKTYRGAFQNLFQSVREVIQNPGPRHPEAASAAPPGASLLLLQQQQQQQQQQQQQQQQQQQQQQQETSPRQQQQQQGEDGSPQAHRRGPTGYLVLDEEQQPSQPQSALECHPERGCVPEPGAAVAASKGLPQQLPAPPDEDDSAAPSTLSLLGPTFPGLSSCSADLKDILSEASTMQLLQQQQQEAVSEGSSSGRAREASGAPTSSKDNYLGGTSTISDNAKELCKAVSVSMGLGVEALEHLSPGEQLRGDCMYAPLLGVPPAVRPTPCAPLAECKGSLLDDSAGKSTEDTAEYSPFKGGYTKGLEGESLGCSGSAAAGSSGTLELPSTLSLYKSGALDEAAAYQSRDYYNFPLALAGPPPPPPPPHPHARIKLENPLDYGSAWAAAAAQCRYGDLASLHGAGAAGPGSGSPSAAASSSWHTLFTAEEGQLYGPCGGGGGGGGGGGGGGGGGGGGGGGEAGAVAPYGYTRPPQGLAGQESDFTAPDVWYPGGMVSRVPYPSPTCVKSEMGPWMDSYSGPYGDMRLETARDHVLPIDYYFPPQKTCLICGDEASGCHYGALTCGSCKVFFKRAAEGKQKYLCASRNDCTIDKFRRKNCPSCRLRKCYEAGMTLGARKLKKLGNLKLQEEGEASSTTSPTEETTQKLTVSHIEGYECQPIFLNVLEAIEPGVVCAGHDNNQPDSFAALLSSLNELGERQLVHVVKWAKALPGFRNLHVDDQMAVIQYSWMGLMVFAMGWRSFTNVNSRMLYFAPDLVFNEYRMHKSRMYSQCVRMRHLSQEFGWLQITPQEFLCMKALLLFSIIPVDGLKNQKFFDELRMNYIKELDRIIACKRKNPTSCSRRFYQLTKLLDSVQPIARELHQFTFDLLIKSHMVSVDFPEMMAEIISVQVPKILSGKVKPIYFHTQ
Description: as §1

[3] = tested on: NOD/SCID mice; assay: treatment toxicity monitoring in xenograft mice; format: in vivo; details: for changes in body weight, clinical signs and gross morphology: during the study period; for mouse mortality: in vivo
Description: All experiments involving laboratory animals were conducted in accordance with the Guidelines for Animal Experiments of Chang Gung Memorial Hospital and approved by the Animal Research Committee at the hospital. LNCaP cells were harvested, washed twice with phosphate-buffed saline, and resuspended at a final concentration of 5 × 10^6 cells/mL in Matrigel (BD Biosciences, San Jose, CA) containing basement membrane components. Next, 5 × 10^5 cells (100 μL per site) were subcutaneously injected into the flanks of 4–6 week-old male NOD/SCID mice (BioLASCO, Taiwan). Tumor development was confirmed within 2–3 weeks after injection of the same number of cell subclones. Treatment with different chemicals was initiated at the same time. Tumor dimensions were measured twice a week with calipers, and tumor volumes calculated using the formula: tumor volume (mm^3) = tumor length (mm) × [tumor width (mm)]^2 × 0.5. Three to five mice were used per group (with or without chemical treatment). Mice were sacrificed 4 weeks after chemical injection and tumors harvested for further analyses. For evaluation of treatment toxicity, animal mortality, changes in body weight, clinical signs and gross morphology were monitored during the experiment.

[4] = target: T3, AR-peptide interaction (Homo sapiens, UniProt P10275); assay: AR-peptide interaction reporter assay (GAL4-DBD-3-18 / VP16-AR) in PC-3 cells; format: cell-based; details: 10 nM DHT, Figure 6B
T3 construct: expressed in transfected cells; host or cells: PC-3
T3 sequence (P10275 1-920): T2 sequence (P10275 1-920)
Description: as §1

Cc1ccc(-c2nnc(Nc3ccccc3)o2)cc1 [HWC-489]
concentration range of significant suppression of AR N-C interaction [1]: 0.1 to 1 µM
concentration range of significant suppression of AR-cofactor interaction [2]: 0.1 to 1 µM
changes in body weight, clinical signs and gross morphology [3]: no significant alterations
mouse mortality [3]: No mouse mortality was observed
concentration range of significant suppression of AR-peptide interaction [4]: 0.1 to 1 µM

COc1cccc(Nc2nnc(-c3ccc(N(C)C)cc3)o2)c1 [LHJ-647]
concentration range of significant suppression of AR N-C interaction [1]: 0.1 to 1 µM
concentration range of significant suppression of AR-cofactor interaction [2]: 0.1 to 1 µM
changes in body weight, clinical signs and gross morphology [3]: no significant alterations
mouse mortality [3]: No mouse mortality was observed
concentration range of significant suppression of AR-peptide interaction [4]: 0.1 to 1 µM
